Patent EP3050567B1, “COMPOUND FOR ACTIVATING AMPK AND USES THEREOF” (Energenesis Biomedical Co., Ltd., priority 2013, dated 2015)

Tests used:
high-fat diet-fed mice = test: Anti-diabetic effects in high-fat diet-fed mice; type: in vivo, C57BL/6J mice; details: adenine 0.1 to 50 mg/kg IP twice a day for 6 days, compared to control group
Method: To further evaluate the effects of adenine on the modulation of plasma glucose level, the high-fat diet-fed mice were served as a type 2 diabetes animal model. C57BL/6J mice were maintained at 22°C under a 12-h light/dark cycle and fed either a high fat diet (60% kcal% fat) or a normal diet ad libitum. Intraperitoneal injections of adenine (0.1 to 50 mg/kg) or vehicle were given to the high-fat diet-fed mice from the age of 24 weeks and glucose readings were measure at 1 and 3 hr. IP administration of adenine or vehicle only to the high-fat diet-fed mice continued twice a day for 6 days. On day 6, plasma was collected 1 hr after the last dosing for analyzing, evaluating, measuring plasma glucose and triglycerides.

AMPK [1] = test: AMPK activation assay (phospho-AMPK Thr172 western blot) in Hep G2 cells; type: cell-based, human; details: 30 min
Method: (§1) Effects of adenine on AMPK activation were evaluated based on the phosphorylation of AMPK protein upon adenine treatment. Mouse muscle cell C2C12, mouse fibroblast 3T3, human liver carcinoma cell Hep G2, human breast adenocarcinoma cell line MCF7 and human colon adenocarcinoma grade II cell line HT29, human umbilical vein endothelial cell HUVEC, Human acute monocytic leukemiacell THP1, human macrophage cell U937, murine microglia cell BV-2, and mouse neuroblastoma cell Neuro2A and dermal papilla cell were cultured in high-glucose Dulbecco's modified Eagle's medium (DMEM) containing 10% fetal bovine serum (FBS), 4 mM L-glutamine, 2 mM sodium pyruvate and 1% penicillin/streptomycin (Invitrogen GibcoBRL, Carlsbad, Calif., USA) at 37°C, under 5% CO2. Cells were plated at 3 × 10^5 per well in 6-well plates. Twenty-four hours after plating, adenine was added to the culture media as indicated. After 30 min cells were lysed and subject to western blot analysis. Equal amount of protein from each sample was separated by SDS-PAGE and then electroblotted on to PVDF membranes. Membranes were blocked with 3% BSA in PBS for 60 min and incubated with an anti-phospho-AMPK (Thr172) antibody (1:2,000, Cell signaling) or an anti-AMPK antibody (1:2,000, Cell signaling) at 4°C for 16 h followed by the corresponding secondary antibody for 1 h at room temperature (RT). Immunoreactive bands were detected by enhanced chemiluminescence and recorded using Kodak film. The detected signals were scanned and then quantified using TotalLab Quant software (TotalLab).

AMPK [2] = test: AMPK activation assay (phospho-AMPK Thr172 western blot) in Neuro2A cells; type: cell-based, mouse; details: 30 min
Method: as §1

[3] = system: TNBS-induced inflammatory bowel disease (IBD) mice model; test: TNBS induced inflammation in vivo (relapsing colitis); parameters: species or system C57BL/6J mice; details: daily IP adenine 0.01, 0.1, 5 or 30 mg/kg
Method: To further evaluate the effects of adenine on inflammatory response, TNBS-induced inflammatory bowel disease (IBD) mice model was used. C57BL/6J mice were maintained at 22° C, under a 12-h light/dark cycle. Relapsing colitis was induced with five escalating doses of TNBS, 0.5 mg, 0.75 mg, 1.0 mg, 1.25 mg, and 1.5 mg, in 50% ethanol were administered respectively for 0.1 mL per mouse weekly. After the third administration of TNBS, daily intraperitoneal injection of adenine (0.01, 0.1, 5 or 30 mg/kg body weight) or saline were given to mice. Two days after the fifth TNBS administration, mice were sacrificed. The inflammatory cytokines including TNF, INFγ and IL-17 from colonic lysates were evaluated by enzyme-linked immunosorbent assays.

AMPK [4] = test: AMPK activation assay (phospho-AMPK Thr172 western blot) in U937 cells; type: cell-based, human; details: 30 min
Method: as §1

Hep G2 = test: Cancer cell growth inhibition assay, Hep G2; type: cell-based; details: Homo sapiens; HepG2 cell proliferation, 72 h, cell counting
Method: Human liver hepatocellular carcinoma cell line Hep G2, human breast adenocarcinoma cell line MCF7 and human colon adenocarcinoma grade II cell line HT29 were used to evaluate the effects of adenine on cell proliferation. Those cell lines were obtained from ATCC and were cultured in high-glucose Dulbecco's modified Eagle's medium (DMEM) containing 10% fetal bovine serum (FBS), 4 mM L-glutamine, 2 mM sodium pyruvate and 1% penicillin/streptomycin (Invitrogen GibcoBRL, Carlsbad, Calif., USA) at 37°C under 5% CO2. Cells were plated at 1 × 10^5 per well (6-well plate). Twenty-four hours after plating, cells were treated with indicated concentration of adenine for 72 h and then followed by cell counting. Cells were detached using trypsin-EDTA solution and stained with trypan blue. The living cells were counted using hemocytometer.

AMPK [5] = test: AMPK activation assay (phospho-AMPK Thr172 western blot) in MCF7 cells; type: cell-based, human; details: 30 min
Method: as §1

AMPK [6] = test: AMPK activation assay (phospho-AMPK Thr172 western blot) in THP1 cells; type: cell-based, Human; details: 30 min
Method: as §1

AMPK [7] = test: AMPK activation assay (phospho-AMPK Thr172 western blot) in dermal papilla cells; type: cell-based; details: 30 min
Method: as §1

AMPK [8] = test: AMPK activation assay (phospho-AMPK Thr172 western blot) in HUVEC cells; type: cell-based, human; details: 30 min
Method: as §1

muscle cell C2C12 = test: Glucose uptake in vitro (fluorescent glucose analog 2-NBDG); type: cell-based, Mouse; details: C2C12 cells, 30 min, mean±SEM of three experiments
Method: Effects of adenine on glucose uptake were analyzed by measuring the uptake of fluorescent glucose analog (2-NBDG, Molecular Probes) in muscle cell C2C12. C2C12 cells were treated with indicated concentrations of adenine for 30 min at 37°C, and then incubated with 500 µM of fluorescent glucose analog. After 5 min incubation at room temperature, cells were washed three times with Kreb-Hepes buffered solution and fixed in 70% alcohol. The fluorescence of glucose analog in cells was measured using a Fluorescence Microplate Reader System.

[9] = colonic lysates, dose-dependent, vs non-adenine treated mice

SMILES: Nc1ncnc2nc[nH]c12 [Adenine, adenine]
- lower body weight (high-fat diet-fed mice): more than 15%
- lower plasma glucose (high-fat diet-fed mice): > 30%
- lower plasma triacylglycerides (high-fat diet-fed mice): more than 35%
- lower plasma glucose (high-fat diet-fed mice; listed as adenine): more than 30%
- AMPK activation (fold to control) (AMPK [1]; adenine 1 microM): 1.1 fold to control
- AMPK activation (fold to control) (AMPK [1]; adenine 10 microM): 2.1 fold to control
- AMPK activation (fold to control) (AMPK [1]; adenine 100 microM): 3.3 fold to control
- AMPK activation (fold to control) (AMPK [1]; adenine 200 microM): 3.8 fold to control
- AMPK activation (fold to control) (AMPK [1]; adenine 600 microM): 4.2 fold to control
- AMPK activation (fold to control) (AMPK [2]; adenine 1 microM): 1.2 fold to control
- AMPK activation (fold to control) (AMPK [2]; adenine 10 microM): 2.1 fold to control
- AMPK activation (fold to control) (AMPK [2]; adenine 100 microM): 3.4 fold to control
- body weight loss caused by TNBS [3]: rescued the body weight loss
- level of IL-17 in colon [3, 9]: significantly reduced
- level of INFγ in colon [3, 9]: significantly reduced
- level of TNF in colon [3, 9]: significantly reduced
- AMPK activation (fold to control) (AMPK [4]; adenine 1 microM): 1.1 fold to control
- AMPK activation (fold to control) (AMPK [4]; adenine 10 microM): 1.3 fold to control
- AMPK activation (fold to control) (AMPK [4]; adenine 100 microM): 2.9 fold to control
- AMPK activation (fold to control) (AMPK [4]; adenine 200 microM): 3.7 fold to control
- AMPK activation (fold to control) (AMPK [4]; adenine 600 microM): 4.0 fold to control
- IC50 (Hep G2): 544 µM
- AMPK activation (fold to control) (AMPK [5]; adenine 1 microM): 1.2 fold to control
- AMPK activation (fold to control) (AMPK [5]; adenine 10 microM): 1.6 fold to control
- AMPK activation (fold to control) (AMPK [5]; adenine 100 microM): 2.5 fold to control
- AMPK activation (fold to control) (AMPK [5]; adenine 200 microM): 3.4 fold to control
- AMPK activation (fold to control) (AMPK [5]; adenine 600 microM): 3.7 fold to control
- AMPK activation (fold to control) (AMPK [6]; adenine 1 microM): 1.2 fold to control
- AMPK activation (fold to control) (AMPK [6]; adenine 10 microM): 2.2 fold to control
- AMPK activation (fold to control) (AMPK [6]; adenine 100 microM): 3.7 fold to control
- AMPK activation (fold to control) (AMPK [6]; adenine 200 microM): 4.3 fold to control
- AMPK activation (fold to control) (AMPK [6]; adenine 600 microM): 4.2 fold to control
- AMPK activation (fold to control) (AMPK [7]; adenine 1 microM): 1.1 fold to control
- AMPK activation (fold to control) (AMPK [7]; adenine 10 microM): 1.4 fold to control
- AMPK activation (fold to control) (AMPK [7]; adenine 100 microM): 2.1 fold to control
- AMPK activation (fold to control) (AMPK [7]; adenine 200 microM): 2.5 fold to control
- AMPK activation (fold to control) (AMPK [7]; adenine 600 microM): 2.8 fold to control
- AMPK activation (fold to control) (AMPK [8]; adenine 1 microM): 1.2 fold to control
- AMPK activation (fold to control) (AMPK [8]; adenine 10 microM): 1.9 fold to control
- AMPK activation (fold to control) (AMPK [8]; adenine 100 microM): 3.2 fold to control
- AMPK activation (fold to control) (AMPK [8]; adenine 200 microM): 3.9 fold to control
- AMPK activation (fold to control) (AMPK [8]; adenine 600 microM): 4.1 fold to control
- Glucose uptake (% to control) (muscle cell C2C12; adenine 1 microM): 117±8.1 % to control
- Glucose uptake (% to control) (muscle cell C2C12; adenine 10 microM): 261±13.4 % to control
- Glucose uptake (% to control) (muscle cell C2C12; adenine 100 microM): 315±11.9 % to control
- Glucose uptake (% to control) (muscle cell C2C12; adenine 600 microM): 338±16.5 % to control
